Values joined by “and” are separate entries in the source; they are usually repeats but may differ in a detail not shown here. Equal values may be shown once. “Also recorded” adds a separate entry of the source. Read-outs that look alike come from different tables or passages of the source.
Columns and labels:
[1] = test system: subcutaneous rat implant model; assay: Subcutaneous rat implant model, collagen/GFm sponges supplemented with calcium phosphates (Example 3/5); type: in vivo; conditions: for Average Mineral Mass / Average Explant Mass / Average Histology Score [0-5]: inter-animal average; for Average Mineral Mass: ash weight; for Average Explant Mass: collagen 7 mg + GFm 10 μg, additive 7 mg (50 wt. %); for Average Histology Score [0-5] / Histology score, Direct Comparison Averages [0-5]: scoring of Table 7; for Explant mass, Direct Comparison Averages / Mineral mass, Direct Comparison Average / Histology score, Direct Comparison Averages [0-5]: intra-animal comparison subset; for bone quality and maturity in histological sections: photomicrographs FIG. 15, H&E/Von Kossa, toluidine blue; for Explant mass, Direct Comparison Δwt. % / Histology score, Direct Comparison [%] / Mineral mass, Direct Comparison Δwt. %: relative to intra-animal collagen/GFm control; for effect on explant and mineral mass: versus collagen controls / other compositions
Procedure: The advantages of the rat model for product evaluation include an accelerated rate of bone induction. Visible evidence of mineralization appears in the implant within several days (˜10), with typical experiments lasting between 14 and 21 days. The testing protocol involved implantation of porous collagen (bovine tendon Type 1, 7 mg, 96 vol. % porosity) samples containing a natural mixture of bovine, osteoinductive proteins (GFm, 10 μg). […] Samples were implanted in four subcutaneous sites including the upper quadrants of the abdomen (sites 1, 2) and the upper quadrants of the dorsal thorax (sites 6, 7). The osteoinductive differences between controls and calcium phosphate supplemented samples [7 mg, 50 wt. %] were assessed using three standard test protocols: histological tissue analysis and mineral composition via x-ray and ash weight analysis (Intermedics Orthopedics/Denver, Inc. Histology protocol STM 009; Intermedics Orthopedics/Denver, Inc. Alkaline phophatase protocol STM 0024, 0026).
Samples were assessed in comparison to two different control sample populations, including: collagen sponges and collagen/GFm sponges supplemented with 50 wt % devitalized bone matrix (DVBM) additives. The collagen/GFm control samples were used as a reference for a baseline osteoinductive response. A calcium phosphate additive was considered detrimental if it either reduced the explant or mineral mass values or if it negatively influenced bone maturation. […] These samples were prepared as an alternative for demineralized bone matrix (DBM) additives. Demineralized bone matrix provides both an ideal osteoconductive matrix for cellular invasion and bone mineralization and a pooled concentration of osteoinductive proteins.
ANOVA was performed without data replications turning the analysis into an expanded pool Student-T test. Statistical significance was predicted using α<0.05. […] Compositions that had no significant influence on mass are indicated in plain text. Compositions that stimulated a statistically significant improvement in mass are indicated in bold text [Tables 5 and 6].
The quality and skeletal maturity of produced bone was assessed through histological microscopic analysis of thin, stained tissue sections. […] Thin sections (4 μm) from the explant midlines were obtained with a microtome. One section was stained with hematoxylin & eosin (H&E) and one was stained with toluidine blue to highlight important cellular details. The H&E sections were counterstained with silver nitrate (Von Kossa technique) to highlight mineralized tissue components. The histological sections were scored for quality and maturity using a scoring system, outlined in Table 7, previously developed by Sulzer Biologics according to STM-021. […]

[2] = Equilibrium solubility of calcium and phosphate ions from calcium phosphate salts; type: physicochemical
[3] = pH buffering potential of calcium salts; type: physicochemical
[4] = equilibrium solubility of the salt

Row | Insoluble fraction [200 mg/cc] ([2]; 200 mg/cc) | Equilibrium [Ca^2+] [2, 4] | Equilibrium [PO4^3−] [2, 4] | pH (buffering potential of the salt) [3] | pH (buffering potential of the salt) ([3]; listed as Hydroxyapatites) | Compound | Average Mineral Mass [1] | Average Explant Mass [1] | Average Histology Score [0-5] [1] | Explant mass, Direct Comparison Averages [1] | Mineral mass, Direct Comparison Average [1] | Histology score, Direct Comparison Averages [0-5] [1] | improvement in histological score ([1]; intra-animal, relative to collagen control) | bone quality and maturity in histological sections [1] | Explant mass, Direct Comparison Δwt. % [1] | Histology score, Direct Comparison [%] [1] | Mineral mass, Direct Comparison Δwt. % [1] | Explant mass, Direct Comparison Δwt. % ([1]; listed as 2CaO.P2O5) | Mineral mass, Direct Comparison Δwt. % ([1]; listed as 2CaO.P2O5) | effect on explant and mineral mass [1] | histological score / osteoinductive performance, statistical comparison ([1]; α<0.05)
1 | – | – | – | – | – | O=P([O-])([O-])OP(=O)([O-])[O-].[Ca+2].[Ca+2] [2CaO•P2O5•2H2O (CP), calcium pyrophosphate] | 20.8 mg | 126.2 mg | 2.3 | 170.3 mg | 31.5 mg | 2.3 | +163 wt. % | comparatively reduced in maturity but were greater than control samples | +99.6% wt. % | +11.1% | +163.0% wt. % | +99.6 wt. % | +263 wt. % | appreciably enhanced; also recorded: significantly enhanced explant and mineral mass values | Statistically superior improvements in histological score
2 | – | – | – | – | – | O=P([O-])([O-])[O-].O=P([O-])([O-])[O-].[Ca+2].[Ca+2].[Ca+2] [3CaO•P2O5 (α-TCP), tricalcium phosphate] | 6.5 mg | 39.5 mg | 1.1 | 58.7 mg | 9.4 mg | 1.3 | – | – | −42.9% wt. % | −35.1% | −28.3% wt. % | – | – | – | –
3 | – | – | – | – | – | O=P([O-])([O-])[O-].O=P([O-])([O-])[O-].[Ca+2].[Ca+2].[Ca+2] [3CaO•P2O5 (β-TCP), tricalcium phosphate] | 8.1 mg | 80.1 mg | 1.3 | 71.6 mg | 5.7 mg | 1.3 | – | – | −26.3% wt. % | −23.9% | −31.6% wt. % | – | – | – | –
4 | – | – | – | – | – | O=C([O-])[O-].[Ca+2] [CaCO3 (aragonite), calcium carbonate] | 10.4 mg | 69.4 mg | 1.0 | 88.6 mg | 14.5 mg | 1.0 | – | – | −27.3% wt. % | −63.9% | +3.8% wt. % | – | – | – | –
5 | – | – | – | – | – | O=C([O-])[O-].[Ca+2] [CaCO3 (calcite), calcium carbonate] | 7.9 mg | 67.4 mg | 1.0 | 73.1 mg | 8.1 mg | 1.0 | – | – | −28.0% wt. % | −58.3% | −3.2% wt. % | – | – | – | –
6 | – | – | – | – | – | O=C([O-])[O-].[Ca+2] [calcium carbonates, calcium carbonate] | – | – | – | – | – | – | – | comparatively reduced | – | – | – | – | – | – | –
7 | – | – | – | – | – | hydroxyapatite [3.33CaO.P2O5(OH)2 (Calcitek)] | – | – | – | – | – | – | – | – | +44.1 wt. % | – | +279.6 wt. % | – | – | – | –
8 | – | – | – | – | – | hydroxyapatite [3.33CaO•P2O5 (HA-am)] | 26.5 mg and 29.4 mg | 129.9 mg and 117.9 mg | 1.3 and 1.4 | 120.3 mg and 140.6 mg | 27.1 mg and 30.4 mg | 1.2 and 1.7 | – | – | – | – | – | – | – | – | –
9 | – | – | – | – | – | hydroxyapatite [3.33CaO•P2O5 (HA-px)] | 19.8 mg | 113.5 mg | 1.4 | 124.7 mg | 21.9 mg | 2.0 | – | – | +4.5% wt. % | −26.7% | +74.3% wt. % | – | – | – | –
10 | 99.9999 wt. % | 2.2 µM | 1.3 µM | ~8.5 and ~9 | ~8 | hydroxyapatite [Ca5(PO4)3(OH) (HA)] | – | – | – | – | – | – | – | negative effect on bone ossicle maturation; also recorded: comparatively reduced | – | – | – | – | – | appreciably enhanced | –
